Measured values published in patent US6863895B2, “Mycobacterial sulfation pathway proteins and methods of use thereof” (priority 2001, dated 2005).

Columns and labels:
[1] = system: E. coli CysC (JM81A complemented with M. tuberculosis CysC); assay: microbe, parasite or virus in culture; format: cell-based; details: Escherichia coli, read-out: percent inhibition of growth
[2] = system: E. coli CysH (JM81A complemented with M. smegmatis CysH); assay: microbe, parasite or virus in culture; format: cell-based; details: Escherichia coli; E. coli CysH strain; 25 μg/mL of compound; read-out: percent inhibition of growth
[3] = system: E. coli BioB (JM81A control strain containing the BioB gene); assay: microbe, parasite or virus in culture; format: cell-based; details: Escherichia coli, 25 μg/mL of compound, read-out: percent inhibition of growth
[4] = molecular target: T1, M. tuberculosis CysC (APS kinase) (Mycobacterium tuberculosis, UniProt P9WNM5); format: biochemical
T1 construct: made in house; host or cells: E. coli BL21 STAR, plasmid pET28b(+)CysC
T1 sequence (P9WNM5 442-614 limits assumed): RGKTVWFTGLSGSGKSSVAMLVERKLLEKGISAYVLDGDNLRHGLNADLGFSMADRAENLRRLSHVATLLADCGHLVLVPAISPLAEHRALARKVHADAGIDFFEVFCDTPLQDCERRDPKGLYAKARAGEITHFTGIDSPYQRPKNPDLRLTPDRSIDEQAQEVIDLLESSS

[5] = molecular target: APS kinase of E. coli (Escherichia coli, UniProt P0A6J1); details: cited from earlier work
Sequence of APS kinase of E. coli (P0A6J1 whole entry): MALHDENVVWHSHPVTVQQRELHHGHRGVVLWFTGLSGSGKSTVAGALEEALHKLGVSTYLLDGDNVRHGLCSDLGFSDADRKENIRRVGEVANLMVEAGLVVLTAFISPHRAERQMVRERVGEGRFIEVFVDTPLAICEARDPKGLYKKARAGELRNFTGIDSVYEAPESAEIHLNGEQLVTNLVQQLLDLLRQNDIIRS

## Nc1ccc(S(=O)(=O)Nc2cnc3ccccc3n2)cc1
[1]
  inhibition at 25 µg/mL: 94%
[2]
  inhibition at 25 µg/mL: 29%
[3]
  inhibition at 25 µg/mL: 77%

## [N-]=[N+]=Nc1ccc(S(=O)(=O)Nc2ncccn2)cc1
[1]
  inhibition at 25 µg/mL: 95%
[2]
  inhibition at 25 µg/mL: 0%
[3]
  inhibition at 25 µg/mL: 85%

## CC(=N/Nc1nc2ccccc2s1)/N=N/c1cccc(O)c1
[1]
  inhibition at 25 µg/mL: 47%
[2]
  inhibition at 25 µg/mL: 0%
[3]
  inhibition at 25 µg/mL: 0%

## O=C(O)c1ccccc1N[C@H](c1ccccc1)c1ccc2cccnc2c1O
[1]
  inhibition at 25 µg/mL: 93%
[2]
  inhibition at 25 µg/mL: 25%
[3]
  inhibition at 25 µg/mL: 1%

## CCN(CC)CC[n+]1ccc2c(C)c3[nH]c4ccccc4c3c(C)c2c1
[1]
  inhibition at 25 µg/mL: 98%
[2]
  inhibition at 25 µg/mL: 97%
[3]
  inhibition at 25 µg/mL: 0%

## O=C1Oc2ccccc2C(=O)/C1=C/Nc1ncc(-c2ccc(O)c(O)c2)s1
[1]
  inhibition at 25 µg/mL: 78%
[2]
  inhibition at 25 µg/mL: 90%
[3]
  inhibition at 25 µg/mL: 0%

## Nc1ncnc2c1ncn2[C@@H]1O[C@H](COP(=O)(O)OS(=O)(=O)O)[C@@H](O)[C@H]1O [APS, adenylyl phosphosulfate]
[4]
  VmaxE0: 1.05 s⁻¹
  VmaxE0 (two-fold decrease): 611 mM⁻¹ s⁻¹
  apparent VmaxE0: 0.85 ± 0.04 s⁻¹
[5]
  Km: 0.25 µM

## Nc1ncnc2c1ncn2[C@@H]1O[C@H](COP(=O)(O)OP(=O)(O)OP(=O)(O)O)[C@@H](O)[C@H]1O [ATP]
[4]
  apparent VmaxE0: 0.95 ± 0.03 s⁻¹
[4]; read-out: apparent Km
  Km: 910 ± 100 µM
